Results as given in patent publication US6683186B2, “2,3-Disubstituted pyridine derivative, process for the preparation thereof, pharmaceutical composition containing the same, and intermediate therefor” (Dainippon Pharmaceutical Company, Limited, priority 1998, dated 2004).
pIC50: −log10 of the molar value. Counter-ions that a name gives are not always drawn. Like-named read-outs stand apart in the source and are kept apart here.

Experiments:
[1] = test system: PDE IV isolated and purified from guinea pig eosinophils; assay: PDE IV inhibitory activity test; type: biochemical; settings: hydrolysis of cAMP by enzyme preparation from guinea pig eosinophils; read-out: 50% Inhibitory Concentration
Method: The PDE IV inhibitory activity test was carried out according to a method using cosinophils prepared from the abdomen of guinea pig (Souness, J. E. et al., Biochem. Pharmacol. vol. 42, p. 937 (1991)). That is, a homogenizing buffer (10 ml, components: 20 mM Tris-HCl buffer (pH 7.5); 2 mM magnesium chloride; 1 mM dithiothreitol, 5 mM ethylenediamine tetraacetate disodium; 250 mM sucrose; 20 μM p-tosyl-l-lysine-chloromethylketone; 10 μg/ml Leupeptine) was added to 5×10^7 cells, and the mixture was centrifuged. To the residue was added a solubilizing buffer (10 ml, sodium deoxycholate (final concentration: 0.5%) and sodium chloride (final concentration: 100 mM) were added to the above homogenizing buffer), and the mixture was centrifuged again. The supernatant was subjected to ultrafiltration using Molcut-II (manufactured by Japan Millipore Limited), and the fraction on the membrane was collected by adding a homogenizing buffer (10 ml) to give an enzyme preparation. Inhibitory activity against the enzyme was determined by comparing the hydrolysis rates of a substrate, cAMP (manufactured by Nacalai Tesque Inc.), by the above enzyme fraction between in the test compound-treated group and the vehicle group.

[2] = test system: bronchoconstriction of guinea pig induced by the antigen; assay: Inhibitory effect on antigen-induced bronchoconstriction (Konzett-Roessler method); type: in vivo; settings: sensitized guinea pigs; for inhibition in vivo at 10 mg/kg / inhibition in vivo at 3 mg/kg / inhibition in vivo at 30 mg/kg: Cavia porcellus, po, read-out: Inhibitory Rate; for inhibition in vivo at 3 mg/kg: 3 mg/kg orally; for inhibition in vivo at 30 mg/kg: 30 mg/kg orally
Method: Hartley male guinea pigs were actively sensitized by intraperitoneally administering an ovalbumin (manufacture by Sigma). Four weeks thereafter, the animals were anesthetized with Nembutal (50 mg/kg, i.p., manufactured by Dainabot Co., Ltd.), and a cannual was inserted at the airway, and the bronchoconstriction response of the animals under artificial respiration was observed. The response of the airway was measured by Konzett-Roessler method (Naunyn-Schmiedebergs, Aech. Exp. Pathol. Pharmacol., vol. 195, p. 71 (1940)). A test compound (the compounds of Examples of the present invention as listed in Table 3) was orally administered to the animals one hour prior to the administration of the antigen (i.e., ovalbumin, 0.05%/physiological saline solution, i.v.). Only the compound of Example 31 was orally administered 2 hours prior to the administration of the antigene. The inhibitory rate (%) caused by the test compound was calculated by comparing the bronchoconstriction response of the test compound-treated group with that of the control group to which only a solvent was administered.

[3] = acute toxicity test; type: in vivo; settings: dose of 2000 mg/kg
Text: Besides, the present compounds (I) of the present invention are low toxic.

[4] = 1 h, 10 mg/kg orally, one hour prior to antigen (ovalbumin i.v.)
[5] = 1 h, one hour prior to antigen (ovalbumin i.v.)
[6] = 2 hours prior to antigen (ovalbumin i.v.)

Q: With `Brc1cccc(Sc2ncccc2OCCCc2cccnc2)c1` [Example 3, 2-(3-bromophenylthio)-3-[3-(pyridin-3-yl)propoxy]-pyridine] as the compound, how does the pIC50 [1] read?
A: 7.45

Q: And the inhibition in vivo at 10 mg/kg [2, 4]?
A: 59.9%

Q: With `CS(=O)(=O)Nc1cnccc1CCCOc1cccnc1Oc1cccc(Cl)c1` [Example 70, 2-(3-chlorophenoxy)-3-[3-(3-methylsulfonylaminopyridin-4-yl)propoxy]pyridine] as the compound, how does the pIC50 [1] read?
A: 6.82

Q: For `Oc1cccc(Sc2ncccc2OCCCc2ccncc2)c1` [Example 13, 2-(3-hydroxyphenylthio)-3-[3-(pyridin-4-yl)propoxy]pyridine], which melting point is on record?
A: 158 to 159 °C

Q: With `COc1ccc(C2CNC(=O)C2)cc1OC1CCCC1` (stereo not shown) [Rolipram, reference compound] as the compound, how does the pIC50 [1] read?
A: 7.55

Q: With `c1ccc(Sc2ncccc2OCCCc2ccncc2)cc1` [Example 15] as the compound, how does the pIC50 [1] read?
A: 8.01

Q: And the melting point?
A: 41 to 43 °C

Q: With `Nc1cncc(O)c1CCCOc1cccnc1Oc1cccc(Cl)c1` [Example 69, 2-(3-chlorophenoxy)-3-[3-(3-amino-5-hydroxypyridin-4-yl)propoxy]pyridine.1.0 fumarate] as the compound, how does the pIC50 [1] read?
A: 7.39

Q: With `COc1ccc(C(=O)Nc2c(Cl)cncc2Cl)cc1OC1CCCC1` [RP-73401, reference compound] as the compound, how does the pIC50 [1] read?
A: 9.74

Q: Which results are given for `Oc1cnccc1CCCOc1cccnc1Oc1cccc(Br)c1` [Example 32, 2-(3-bromophenoxy)-3-[3-(3-hydroxypyridin-4-yl)-propoxy]pyridine]?
A: pIC50 [1]: 7.85; inhibition in vivo at 3 mg/kg [2, 5]: 34%; inhibition in vivo at 10 mg/kg [2, 4]: 70%; inhibition in vivo at 30 mg/kg [2, 5]: 72%

Q: With `Oc1cnccc1CCCOc1cccnc1Oc1cccc(F)c1` [Example 44, 2-(3-fluorophenoxy)-3-[3-(3-hydroxypyridin-4-yl)-propoxy]pyridine] as the compound, how does the pIC50 [1] read?
A: 7.46

Q: And the inhibition in vivo at 10 mg/kg [2, 4]?
A: 55%

Q: With `N#Cc1cccc(Oc2ncccc2OCCCc2ccncc2)c1` [Example 41, 2-(3-Cyanophenoxy)-3-[3-(pyridin-4-yl)propoxy]pyridine] as the compound, how does the pIC50 [1] read?
A: 7.41

Q: What about the melting point of the same compound?
A: 112 to 113 °C

Q: With `COc1ccc([C@]2(C#N)CC[C@@H](C(=O)O)CC2)cc1OC1CCCC1` [SB-207499, reference compound] as the compound, how does the pIC50 [1] read?
A: 7.96

Q: With `CC(=O)Oc1cnccc1CCCOc1cccnc1Cc1cccc(Br)c1` [Example 57, 2-(3-bromobenzyl)-3-[3-(3-acetoxypyridin-4-yl)propoxy]-pyridine.1.5 fumarate] as the compound, how does the pIC50 [1] read?
A: 7.64

Q: Which inhibition in vivo at 10 mg/kg [2, 4] does the source give for `N#Cc1cccc(Oc2ncccc2OCCCc2ccncc2O)c1` [Example 28, 2-(3-cyanophenoxy)-3-[3-(3-hydroxypyridin-4-yl)-propoxy]pyridine] here?
A: 54%

Q: With `Oc1cncc(Cl)c1CCCOc1cccnc1Oc1cccc(Cl)c1` [Example 73, 2-(3-chlorophenoxy)-3-[3-(3-chloro-5-hydroxypyridin-4-yl)propoxy]pyridine] as the compound, how does the pIC50 [1] read?
A: 6.70

Q: For `Oc1cnccc1CCCOc1cccnc1Nc1cccc(Br)c1` [Example 46, 2-(3-bromoanilino)-3-[3-(3-hydroxypyridin-4-yl)propoxy]-pyridine], which inhibition in vivo at 10 mg/kg [2, 4] is on record?
A: 45.7%

Q: With `COc1cccc(Sc2ncccc2OCCCc2ccncc2)c1` [Example 14] as the compound, how does the pIC50 [1] read?
A: 7.82

Q: What about the melting point of the same compound?
A: 84 to 85 °C

Q: With `Oc1cnccc1CCCOc1cccnc1Sc1cccc(Br)c1` [Example 26, 2-(3-bromophenylthio)-3-[3-(3-hydroxypyridin-4-yl)-propoxy]pyridine] as the compound, how does the inhibition in vivo at 10 mg/kg [2, 4] read?
A: 48.3%

Q: With `Brc1cccc(Oc2ncccc2OCCCc2ccncc2)c1` [Example 35, 2-(3-bromophenoxy)-3-[3-(pyridin-4-yl)propoxy]pyridine] as the compound, how does the pIC50 [1] read?
A: 7.59

Q: What about the inhibition in vivo at 10 mg/kg [2, 4] of the same compound?
A: 49.3%

Q: With `COC(=O)c1cccc(Oc2ncccc2OCCCc2ccncc2)c1` [Example 53, 2-(3-methoxycarbonylphenoxy)-3-[3-(pyridin-4-yl)-propoxy]pyridine] as the compound, how does the pIC50 [1] read?
A: 7.63

Q: With `CC(=O)Oc1cnccc1CCCOc1cccnc1Oc1cccc(Cl)c1` [Example 54, 2-(3-chlorophenoxy)-3-[3-(3-acetoxypyridin-4-yl)propoxy]-pyridine.monofumarate] as the compound, how does the pIC50 [1] read?
A: 7.20

Q: And the inhibition in vivo at 10 mg/kg [2, 4]?
A: 33%

Q: With `Oc1cnccc1CCCOc1cccnc1Oc1cccc(Cl)c1` [Example 31, 2-(3-chlorophenoxy)-3-[3-(3-hydroxypyridin-4-yl)-propoxy]pyridine] as the compound, how does the pIC50 [1] read?
A: 7.80

Q: What about the inhibition in vivo at 3 mg/kg [2, 6] of the same compound?
A: 39%

Q: What about the inhibition in vivo at 10 mg/kg ([2]; 10 mg/kg orally, 2 hours prior to antigen (ovalbumin i.v.)) of the same compound?
A: 66%

Q: What about the inhibition in vivo at 30 mg/kg [2, 6] of the same compound?
A: 69%

Q: And the “toxicity in acute toxicity test” value [3]?
A: never showed any toxicity

Q: With `Brc1cccc(Oc2ncccc2OCCCc2cccnc2)c1` [Example 40] as the compound, how does the pIC50 [1] read?
A: 7.74

Q: And the inhibition in vivo at 10 mg/kg [2, 4]?
A: 45.3%

Q: And the melting point?
A: 46 to 48 °C

Q: What does the source list for `Fc1cccc(Oc2ncccc2OCCCc2ccncc2)c1` [Example 39, 2-(3-fluorophenoxy)-3-[3-(pyridin-4-yl)propoxy]pyridine]?
A: pIC50 [1]: 7.69; inhibition in vivo at 10 mg/kg [2, 4]: 66.3%; melting point: 117 to 118 °C

Q: With `Oc1cncc(CCCOc2cccnc2Oc2cccc(Cl)c2)c1` [Example 65, 2-(3-chlorophenoxy)-3-[3-(5-hydroxypyridin-3-yl)-propoxy]pyridine] as the compound, how does the pIC50 [1] read?
A: 7.07

Q: With `Brc1cccc(Sc2ncccc2OCCCc2ccncc2)c1` [Example 7, 2-(3-bromophenylthio)-3-[3-(pyridin-4-yl)propoxy]pyridine] as the compound, how does the pIC50 [1] read?
A: 7.47

Q: And the inhibition in vivo at 10 mg/kg [2, 4]?
A: 77.2%

Q: What about the melting point of the same compound?
A: 89 to 90 °C

Q: With `Oc1cnccc1CCCOc1cccnc1Oc1ccccc1` [Example 30, 2-phenoxy-3-[3-(3-hydroxypyridin-4-yl)propoxy]pyridine] as the compound, how does the pIC50 [1] read?
A: 7.96

Q: And the inhibition in vivo at 10 mg/kg [2, 4]?
A: 46.5%

Q: With `CC(=O)Oc1cnccc1CCCOc1cccnc1Oc1ccccc1` [Example 56, 2-phenoxy-3-[3-(3-acetoxypyridin-4-yl)propoxy]pyridine] as the compound, how does the pIC50 [1] read?
A: 8.25

Q: Which “Inhibitory Rate” value ([2]; 10 mg/kg orally, one hour prior to antigen (ovalbumin i.v.)) does the source give for `CCOC(=O)c1cccc(Oc2ncccc2OCCCc2ccncc2O)c1.CCOC(=O)c1cccc(Oc2ncccc2OCCCc2ccncc2O)c1.O=C(O)/C=C/C(=O)O` [Example 29, 2-(3-ethoxycarbonylphenoxy)-3-[3-(3-hydroxypyridin-4-yl)propoxy]pyridine.0.5 fumarate] here?
A: 42%

Q: With `c1ccc(Oc2ncccc2OCCCc2ccncc2)cc1` [Example 37, 2-phenoxy-3-[3-(pyridin-4-yl)propoxy]pyridine] as the compound, how does the pIC50 [1] read?
A: 7.57

Q: What about the inhibition in vivo at 10 mg/kg [2, 4] of the same compound?
A: 49.6%

Q: What about the melting point of the same compound?
A: 97 to 98 °C
